Legend:
GluClαWT/βWT receptor [1] = biological target: T1, GluClαWT/βWT receptor (Caenorhabditis elegans, UniProt G5EBR3+Q17328); experiment: Whole-cell patch clamp in CHO cells, GluClαWT/βWT receptor; type: cell-based
T1 construct: entry codes of the full-length subunits used in this study; expressed in transfected cells; host or cells: CHO cells, transient co-transfection 1:1, pcDNA3.1
T1 sequence (G5EBR3 21-461): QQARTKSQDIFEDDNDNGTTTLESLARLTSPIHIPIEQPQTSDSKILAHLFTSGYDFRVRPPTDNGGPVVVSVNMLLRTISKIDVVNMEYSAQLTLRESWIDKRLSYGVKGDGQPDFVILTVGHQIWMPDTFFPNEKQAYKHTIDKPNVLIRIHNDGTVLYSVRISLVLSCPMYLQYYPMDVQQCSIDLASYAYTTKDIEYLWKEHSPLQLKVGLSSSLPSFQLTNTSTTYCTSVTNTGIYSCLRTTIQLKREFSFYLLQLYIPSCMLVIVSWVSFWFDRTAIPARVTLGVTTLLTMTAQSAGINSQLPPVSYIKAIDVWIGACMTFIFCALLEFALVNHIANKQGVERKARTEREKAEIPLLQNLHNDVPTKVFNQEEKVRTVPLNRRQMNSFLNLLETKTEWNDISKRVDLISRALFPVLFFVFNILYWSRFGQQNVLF
T1 sequence (Q17328 23-434): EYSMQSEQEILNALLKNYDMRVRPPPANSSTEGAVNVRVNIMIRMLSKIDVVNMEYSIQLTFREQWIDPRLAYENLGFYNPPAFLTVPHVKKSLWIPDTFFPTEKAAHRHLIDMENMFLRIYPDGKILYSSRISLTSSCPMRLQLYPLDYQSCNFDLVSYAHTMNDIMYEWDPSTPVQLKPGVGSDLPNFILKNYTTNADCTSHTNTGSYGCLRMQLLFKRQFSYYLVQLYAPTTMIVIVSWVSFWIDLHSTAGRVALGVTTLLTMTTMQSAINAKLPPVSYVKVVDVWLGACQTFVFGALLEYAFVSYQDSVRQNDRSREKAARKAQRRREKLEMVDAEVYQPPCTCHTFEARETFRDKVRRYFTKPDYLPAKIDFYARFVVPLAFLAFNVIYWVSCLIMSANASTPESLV
Method: (§1) Chinese hamster ovary (CHO) cells were cultured as previously (Bar-Lev et al., [2011]) in Dulbecco’s Modified Eagle Medium (DMEM) containing 10% fetal calf serum, 2 mM glutamax, 100 Units/ml penicillin G and 100 μg/ml streptomycin, and grown in 5% CO2 at 37°C under 90%–95% humidity. The cells were seeded on glass coverslips (13-mm diameter) placed in a 24-multiwell plate. […] For the expression of GluCl receptors, cells were transiently co-transfected with pcDNA3.1 plasmids containing the ORFs of interest using transit-LT1 transfection reagent (Mirus, Madison, WI, USA), according to the manufacturer’s protocol. The cDNAs encoding the C. elegans GluClα (GLC-1) or its mutated versions and the GluClβ (GLC-2) subunits (200–600 ng per well) were used at 1:1 ratio. The pIRES-CD8 plasmid (200 ng per well) was added to enable the visualization of the expressing cells by beads coated with anti-CD8 antibodies (Invitrogen). For high-level expression of the GluClαF276A/βWT mutant receptor in experiments assigned to determine its IVM-EC50, we used the X-tremeGENE HP DNA Transfection Reagent (Roche Life Science). Recordings were performed 72–96 h following the transfection.
(§2) Whole-cell patch clamp recordings were performed as described previously (Bar-Lev et al., [2011]) in CHO cells that were prepared as detailed above. The normal external solution (NES) contained (in millimolar): 140 NaCl, 2.8 KCl, 2 CaCl2, 2 MgCl2, 10 glucose and 10 HEPES, adjusted to pH 7.35 with NaOH (310 mOsm/L). The pipette solution contained (in millimolar): 130 KCl, 4 MgCl2, 4 Na2ATP, 1 EGTA and 10 HEPES, adjusted to pH 7.35 with KOH (290 mOsm/L). The osmolarity of these solutions was maintained by adding sucrose. The electrode resistance was 6–10 MΩ when filled with the pipette solution. External solutions were applied onto the cell by using the VC-77SP fast-step system (Warner Instruments, Hamden, CT, USA) combined with N2 pressure of 3–4 psi to produce laminar flow of the external solution onto the patched cell. All measurements were performed at room temperature. The currents were measured with an Axopatch 200B patch-clamp amplifier (Molecular Devices, Sunnyvale, CA, USA) and a Digidata 1440A interface (Molecular Devices). Acquisition of recording data was performed at 2.5 kHz and recordings were low-pass filtered at 1 kHz, through a four-pole Bessel filter. The pClamp 10 software (Molecular Devices) was used for data acquisition. […] Five-hundred milliseconds after the application started (which is also after the current reached to its peak at −60 mV), the voltage was stepped from −60 mV to −80 mV for 50 ms followed by a 250-ms-long voltage ramp ranging from −80 mV to +80 mV.
(§3) Dose-response curves were fitted to the data points by a nonlinear regression using the Hill Equation 1,

GluClαP192E/βWT receptor = biological target: T2, GluClαP192E/βWT receptor (Caenorhabditis elegans, UniProt G5EBR3+Q17328, P192E); experiment: Whole-cell patch clamp in CHO cells, GluClαP192E/βWT receptor; type: cell-based; settings: +60 mV
T2 construct: entry codes of the full-length subunits used in this study; expressed in transfected cells; host or cells: CHO cells, transient co-transfection 1:1, pcDNA3.1
Method: as §1, with “For high-level expression of the GluClαF276A/βWT mutant receptor in experiments assigned to determine its IVM-EC50, we used the X-tremeGENE HP DNA Transfection Reagent (Roche Life Science). Recordings were performed 72–96 h following the transfection.” left out
(§4) Whole-cell patch clamp recordings were performed as described previously (Bar-Lev et al., [2011]) in CHO cells that were prepared as detailed above. […] The currents were measured with an Axopatch 200B patch-clamp amplifier (Molecular Devices, Sunnyvale, CA, USA) and a Digidata 1440A interface (Molecular Devices). […]

GluClαP192M/βWT receptor = biological target: T3, GluClαP192M/βWT receptor (Caenorhabditis elegans, UniProt G5EBR3+Q17328, P192M); experiment: Whole-cell patch clamp in CHO cells, GluClαP192M/βWT receptor; type: cell-based; settings: +60 mV
T3 construct: entry codes of the full-length subunits used in this study; expressed in transfected cells; host or cells: CHO cells, transient co-transfection 1:1, pcDNA3.1
Method: as §1, with “For high-level expression of the GluClαF276A/βWT mutant receptor in experiments assigned to determine its IVM-EC50, we used the X-tremeGENE HP DNA Transfection Reagent (Roche Life Science). Recordings were performed 72–96 h following the transfection.” left out
as §4

GluClαP192Y/βWT receptor = biological target: T4, GluClαP192Y/βWT receptor (Caenorhabditis elegans, UniProt G5EBR3+Q17328, P192Y); experiment: Whole-cell patch clamp in CHO cells, GluClαP192Y/βWT receptor; type: cell-based; settings: +60 mV
T4 construct: entry codes of the full-length subunits used in this study; expressed in transfected cells; host or cells: CHO cells, transient co-transfection 1:1, pcDNA3.1
Method: as §1, with “For high-level expression of the GluClαF276A/βWT mutant receptor in experiments assigned to determine its IVM-EC50, we used the X-tremeGENE HP DNA Transfection Reagent (Roche Life Science). Recordings were performed 72–96 h following the transfection.” left out
as §4

GluClαY194R/βWT receptor = biological target: T5, GluClαY194R/βWT receptor (Caenorhabditis elegans, UniProt G5EBR3+Q17328, Y194R); experiment: Whole-cell patch clamp in CHO cells, GluClαY194R/βWT receptor; type: cell-based; settings: +60 mV
T5 construct: entry codes of the full-length subunits used in this study; expressed in transfected cells; host or cells: CHO cells, transient co-transfection 1:1, pcDNA3.1
Method: as §1, with “For high-level expression of the GluClαF276A/βWT mutant receptor in experiments assigned to determine its IVM-EC50, we used the X-tremeGENE HP DNA Transfection Reagent (Roche Life Science). Recordings were performed 72–96 h following the transfection.” left out
as §4

[2] = biological target: T6, GluClα[SSS→GSD]/βWT receptor (Caenorhabditis elegans, UniProt G5EBR3+Q17328, S236G/S238D); experiment: Whole-cell patch clamp in CHO cells, GluClα[SSS→GSD]/βWT receptor; type: cell-based; settings: +60 mV
T6 construct: entry codes of the full-length subunits used in this study; expressed in transfected cells; host or cells: CHO cells, transient co-transfection 1:1, pcDNA3.1
Method: as §1, with “For high-level expression of the GluClαF276A/βWT mutant receptor in experiments assigned to determine its IVM-EC50, we used the X-tremeGENE HP DNA Transfection Reagent (Roche Life Science). Recordings were performed 72–96 h following the transfection.” left out
as §4

GluClαE273R/βWT receptor = biological target: T7, GluClαE273R/βWT receptor (Caenorhabditis elegans, UniProt G5EBR3+Q17328, E273R); experiment: Whole-cell patch clamp in CHO cells, GluClαE273R/βWT receptor; type: cell-based; settings: +60 mV
T7 construct: entry codes of the full-length subunits used in this study; expressed in transfected cells; host or cells: CHO cells, transient co-transfection 1:1, pcDNA3.1
Method: as §1, with “For high-level expression of the GluClαF276A/βWT mutant receptor in experiments assigned to determine its IVM-EC50, we used the X-tremeGENE HP DNA Transfection Reagent (Roche Life Science). Recordings were performed 72–96 h following the transfection.” left out
as §4

GluClαF276A/βWT receptor = biological target: T8, GluClαF276A/βWT receptor (Caenorhabditis elegans, UniProt G5EBR3+Q17328, F276A); experiment: Whole-cell patch clamp in CHO cells, GluClαF276A/βWT receptor; type: cell-based
T8 construct: entry codes of the full-length subunits used in this study; expressed in transfected cells; host or cells: CHO cells, transient co-transfection, pcDNA3.1 (X-tremeGENE HP for the IVM-EC50 experiments)
Method: as §1, §2, §3

GluClαF276W/βWT receptor = biological target: T9, GluClαF276W/βWT receptor (Caenorhabditis elegans, UniProt G5EBR3+Q17328, F276W); experiment: Whole-cell patch clamp in CHO cells, GluClαF276W/βWT receptor; type: cell-based; settings: +60 mV
T9 construct: entry codes of the full-length subunits used in this study; expressed in transfected cells; host or cells: CHO cells, transient co-transfection 1:1, pcDNA3.1
Method: as §1, with “For high-level expression of the GluClαF276A/βWT mutant receptor in experiments assigned to determine its IVM-EC50, we used the X-tremeGENE HP DNA Transfection Reagent (Roche Life Science). Recordings were performed 72–96 h following the transfection.” left out
as §4

[3] = biological target: T10, GluClαWT (GLC-1) homomeric receptor (Caenorhabditis elegans, UniProt G5EBR3); design: method as in Degani-Katzav et al., [2016]; settings: CHO cells, αWT alone; ref Degani-Katzav et al., [2016]; cited from earlier work
T10 construct: entry codes of the full-length subunits used in this study; expressed in transfected cells; host or cells: CHO cells, transient transfection, pcDNA3.1
T10 sequence (G5EBR3 21-461): T1 sequence (G5EBR3 21-461)

[4] = biological target: T11, GluClβWT (GLC-2) homomeric receptor (Caenorhabditis elegans, UniProt Q17328); settings: CHO cells, βWT alone, ref Degani-Katzav et al., cited from earlier work
T11 construct: entry codes of the full-length subunits used in this study; expressed in transfected cells; host or cells: CHO cells, transient transfection, pcDNA3.1
T11 sequence (Q17328 23-434): T1 sequence (Q17328 23-434)

GluClαWT/βWT receptor [5] = biological target: T1, GluClαWT/βWT receptor; design: method as in Degani-Katzav et al., [2016]; settings: CHO cells co-transfected with WT α and β subunits; ref Degani-Katzav et al., [2016]; cited from earlier work

T8 sequence (G5EBR3 21-461 F276A, one chain of several): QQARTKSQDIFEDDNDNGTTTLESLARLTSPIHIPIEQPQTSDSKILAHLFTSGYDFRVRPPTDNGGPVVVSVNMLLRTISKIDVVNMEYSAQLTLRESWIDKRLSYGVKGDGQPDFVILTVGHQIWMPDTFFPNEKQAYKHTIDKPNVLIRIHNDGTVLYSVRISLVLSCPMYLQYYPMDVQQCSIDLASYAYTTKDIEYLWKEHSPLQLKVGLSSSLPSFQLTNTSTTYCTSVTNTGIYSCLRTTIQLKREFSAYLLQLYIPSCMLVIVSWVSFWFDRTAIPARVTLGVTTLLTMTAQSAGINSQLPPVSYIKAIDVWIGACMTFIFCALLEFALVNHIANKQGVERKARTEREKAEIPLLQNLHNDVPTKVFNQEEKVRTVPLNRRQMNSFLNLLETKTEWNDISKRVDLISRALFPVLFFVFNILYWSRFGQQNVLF
T3 sequence (G5EBR3 21-461 P192M, one chain of several): as the sequence (G5EBR3 21-461 F276A, one chain of several) above, with P172M, A256F counted along it
T2 sequence (G5EBR3 21-461 P192E, one chain of several): as the sequence (G5EBR3 21-461 F276A, one chain of several) above, with P172E, A256F counted along it
T6 sequence (G5EBR3 21-461 S236G/S238D, one chain of several): as the sequence (G5EBR3 21-461 F276A, one chain of several) above, with S216G, S218D, A256F counted along it
T7 sequence (G5EBR3 21-461 E273R, one chain of several): as the sequence (G5EBR3 21-461 F276A, one chain of several) above, with E253R, A256F counted along it
T9 sequence (G5EBR3 21-461 F276W, one chain of several): as the sequence (G5EBR3 21-461 F276A, one chain of several) above, with A256W counted along it
T5 sequence (G5EBR3 21-461 Y194R, one chain of several): as the sequence (G5EBR3 21-461 F276A, one chain of several) above, with Y174R, A256F counted along it
T4 sequence (G5EBR3 21-461 P192Y, one chain of several): as the sequence (G5EBR3 21-461 F276A, one chain of several) above, with P172Y, A256F counted along it

N[C@@H](CCC(=O)O)C(=O)O [Glu, glutamate]
receptor population activated (GluClαWT/βWT receptor [1]; 0.3 mM Glu, calculated from the Glu dose-response curve): ~ 7%
Glu activation properties nH (Hill coefficient) (GluClαWT/βWT receptor [1]; CHO cells, +60 mV): 1.6 ± 0.1
Hill coefficient of activation by Glu after pre-exposure to IVM (GluClαWT/βWT receptor [1]; pre-exposure to 7 nM IVM): 1.2 ± 0.07
Glu activation properties nH (Hill coefficient) (GluClαP192E/βWT receptor): 1.5 ± 0.1
Glu activation properties nH (Hill coefficient) (GluClαP192M/βWT receptor): 1.6 ± 0.1
Glu activation properties nH (Hill coefficient) (GluClαP192Y/βWT receptor): 1.5 ± 0.1
Glu activation properties nH (Hill coefficient) (GluClαY194R/βWT receptor): 1.5 ± 0.1
Glu activation properties nH (Hill coefficient) [2]: 1.3 ± 0.1
Glu activation properties nH (Hill coefficient) (GluClαE273R/βWT receptor): 1.5 ± 0.1
receptor population activated (GluClαF276A/βWT receptor; 1 mM Glu): ~ 5%
Glu activation properties nH (Hill coefficient) (GluClαF276A/βWT receptor; CHO cells, +60 mV): 1.3 ± 0.1
Hill coefficient of activation by Glu after pre-exposure to IVM (GluClαF276A/βWT receptor; pre-exposure to 50 nM IVM): 1.5 ± 0.03
Glu activation properties nH (Hill coefficient) (GluClαF276W/βWT receptor): 1.5 ± 0.1
response to 10 mM Glu [3]: very weak responses
cells responding to 100 mM Glu ([4]; X-tremeGENE HP transfection, [2017]): 4 of 46
response to 10 mM Glu [4, 2016]: very weak, rare responses
response to Glu (GluClαWT/βWT receptor [5]): robust responses
